Experiments:
[1] = test system: FLAG-tagged PRMT1 and His-tagged PRMT1; test: Pulldown assay of PRMT1 homodimerization; format: binding; conditions: 200 (and 500) μM compound vs DMSO
Description: The poses were obtained by docking with HYBRID onto previously obtained docking poses of TR-033 (TR-07 in cyan) and TR-036 (TR-07 in red). The two monomers are colored in dark and light gray. The dimerization arm of the right monomer is colored in pale pink. The αY helix of the other monomer is colored pale green. The SAH location (derived from a superposition with PDB ID 6NT2) is indicated in pale yellow, but the molecule was not present during the docking calculations. The two images on the right show a close-up view of each docking pose separately. […] The dashed line separates the first and the second monomer. […] The N-terminal αY helix, the SAH location (derived from a superposition with PDB ID 3Q7E), the arginine acceptor site (derived from a superposition with PDB ID 1OR8), the Double E loop, and the dimerization arm are indicated. […] Subsequently, FLAG-beads were washed and bead-bound proteins were analyzed together with an His-tagged PRMT1 input (20 ng) by Western blot using antibodies against the His- and FLAG-tags. As negative control, anti-FLAG resin saturated with FLAG peptide was incubated with His-tagged PRMT1. The His-PRMT1 signals were densitometrically quantified, corrected to the FLAG-PRMT1 signals, and expressed relative to the solvent control, as specified by the numbers below the immunostainings. Molecular weights (kDa) of the protein marker are indicated.
To evaluate the effect of small-molecule PRMT1 modulators on the dimerization of His-tagged and FLAG-tagged PRMT1, pulldown assays were conducted. For the binding reactions, 1 μg of bead-bound FLAG-tagged PRMT1 was preincubated with or without compounds at a total volume of 200 μL IPH buffer (50 mM Tris/HCl pH 8.0, 5 mM EDTA, 0.5% (v/v) NP-40, 150 mM NaCl) containing protease inhibitors (leupeptin, aprotinin, PMSF; Sigma-Aldrich) at 4 °C and under gentle agitation for 30 min. Subsequently, 0.02 μg His-tagged PRMT1 was added per reaction and incubated at 4 °C and under gentle agitation for 15 min. Finally, the beads were washed 3 times in IPH buffer containing 400 mM NaCl and analyzed by SDS-PAGE and immunoblotting.

ADMA in PANC-1 cells = test: Western blot of global ADMA levels in PANC-1 cells; format: cell-based, human; conditions: PANC-1, 72 h, 10 and 20 μM (TR-033 2.5 and 5 μM), vs DMSO
Protocol: As negative control (Ctrl (−)), PRMT1 enzymes and [^14C-methyl]-SAM were incubated without substrates. Subsequently, samples were separated by SDS-PAGE, blotted, and analyzed by autoradiography. Substrates (H2A, H4 or GST-GAR) and molecular weights (kDa) of the protein marker are indicated. Black lines designate composite images, assembled from the same blots and exposure times. The methylation signals of the substrates were densitometrically quantified, and expressed relative to the DMSO-treated control, as indicated by the numbers below the autoradiographs. Representative results are depicted, with quantification graphs (below the autoradiographs in A and B) summarizing biological replicates. […] Subsequently, GST-GAR was immobilized on glutathione-beads and PRMT1 activity was measured by quantifying the incorporation of ^14C-methyl groups (in cpm) using liquid scintillation counting. […] Cell viability was quantified using the CellTiter-Glo assay. […] Subsequently, whole-cell extracts were prepared and analyzed by Western blot using antibodies against ADMA, ACTIN (ACT), and VINCULIN (VINC), of which the latter two stainings served as loading controls. […] All the ADMA signals per lane were densitometrically quantified, normalized to the signal of the respective loading control and expressed relative to the DMSO-treated control, as indicated by the numbers below the immunostainings. […]

Compound	interaction of FLAG-tagged PRMT1 and His-tagged PRMT1 (homodimerization) [1]	global arginine methylation (ADMA) in cells (ADMA in PANC-1 cells)
CCN(CC)Cc1cccc(N/C=C2\C(=O)NC(=O)c3ccccc32)c1.Cl [TR-036, (Z )-N-(3-{[(1,3-Dioxo-2,3-dihydroisoquinoline-4(1 H )-ylidene)methyl]amino}benzyl)-N -ethylethanaminium chloride]	elevated interaction of the two PRMT1 species	–
CN(C)Cc1cccc(-c2ccc3[nH]c(=O)c4ccccc4c3c2)c1 [TR-033, 2-{3-[(Dimethylamino)methyl]phenyl}phenanthridin-6(5H)-One]	elevated interaction of the two PRMT1 species	did not produce consistent effects
CN(C)Cc1cccc(CN/C=C2\C(=O)NC(=O)c3ccccc32)c1.Cl [TR-07, (Z)-1-[3-({[(1,3-Dioxo-2,3-dihydroisoquinolin-4(1H)-lidene)methyl]amino}methyl)phenyl]-N,N-dimethylmethanaminium chloride]	elevated interaction of the two PRMT1 species	concentration-dependent increase in global arginine methylation
(Z)-2-(2-{[(1,3-Dioxo-2,3-dihydroisoquinolin-4(1H)-ylidene)methyl]amino}phenyl)-N,N-dimethylethan-1-aminium chloride [ICTR-059]	elevated interaction of the two PRMT1 species	–

— article PMC13576449, “Small-Molecule Activators of PRMT1: Discovery, SAR Analyses, and Proapoptotic Effects in Pancreatic Cancer Cells” (Journal of Medicinal Chemistry, 2026)
